According to patent US20230167073A1 (Teijin Pharma Limited, priority 2020, published 2023):

The molecules below were run against T1, Human TRPC6 (Homo sapiens, UniProt Q9Y210) (assay: Evaluation of TRPC6 channel inhibitory activity (1), FLIPR Calcium 5 Assay Kit, OAG stimulation (Compound Nos. 1-1293)). Conditions: not given.
T1 construct: expressed in transfected cells
T1 sequence (Q9Y210 1-931): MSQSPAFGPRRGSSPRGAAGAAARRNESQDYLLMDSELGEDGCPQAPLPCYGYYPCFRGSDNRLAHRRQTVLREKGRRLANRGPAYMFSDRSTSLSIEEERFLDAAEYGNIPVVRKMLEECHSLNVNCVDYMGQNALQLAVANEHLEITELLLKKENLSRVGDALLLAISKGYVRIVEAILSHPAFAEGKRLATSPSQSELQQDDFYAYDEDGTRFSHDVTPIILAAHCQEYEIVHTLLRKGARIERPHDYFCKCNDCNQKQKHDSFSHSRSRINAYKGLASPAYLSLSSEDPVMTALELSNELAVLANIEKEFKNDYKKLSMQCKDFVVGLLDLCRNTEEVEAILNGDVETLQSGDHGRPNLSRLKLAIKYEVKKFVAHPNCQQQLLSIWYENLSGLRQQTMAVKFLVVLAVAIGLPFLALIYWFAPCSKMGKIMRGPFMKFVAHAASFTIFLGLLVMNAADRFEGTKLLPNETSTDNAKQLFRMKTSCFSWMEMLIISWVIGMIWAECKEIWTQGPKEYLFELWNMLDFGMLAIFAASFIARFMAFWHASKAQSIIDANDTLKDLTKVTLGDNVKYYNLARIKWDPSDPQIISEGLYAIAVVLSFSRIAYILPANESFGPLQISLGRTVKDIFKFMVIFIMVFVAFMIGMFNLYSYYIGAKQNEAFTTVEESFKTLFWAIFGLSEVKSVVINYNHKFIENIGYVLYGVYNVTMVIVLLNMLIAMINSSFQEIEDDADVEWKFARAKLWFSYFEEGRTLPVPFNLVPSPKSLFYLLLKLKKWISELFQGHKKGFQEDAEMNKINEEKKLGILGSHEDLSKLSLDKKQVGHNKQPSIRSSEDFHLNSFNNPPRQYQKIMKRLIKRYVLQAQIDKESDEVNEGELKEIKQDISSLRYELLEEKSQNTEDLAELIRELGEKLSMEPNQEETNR
Assay type: cell-based
How it was run: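 Calcium influx read by FLIPR fluorescence in cells stably expressing human TRPC6, dye-loaded 30 min. Compounds preincubated 20 min, then OAG stimulation at 30 μM final. Inhibition fitted by four-parameter logistic regression to give pIC50, reported as +/++/+++ categories.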
For `N#Cc1ccc(-c2ncc(CCN)cn2)c(Oc2cc(N3C4CCC3CC4)ncc2C#N)c1` [compound 748, 4-[2-[5-(2-aminoethyl)pyrimidin-2-yl]-5-cyanophenoxy]-6-(7-azabicyclo[2.2.1]heptan-7-yl)pyridine-3-carbomtrile], the IC50 was under 0.01 µM. `N#Cc1ccc(-c2ncc(CN)cn2)c(Oc2cc(N3C4CCC3CC4)ncc2C#N)c1` [compound 749, 4-[2-[5-(aminomethyl)pyrimidin-2-yl]-5-cyanophenoxy]-6-(7-azabicyclo[2.2.1]heptan-7-yl)pyridine-3-carbonitrile] gave an IC50 of 0.01 to 1 µM. With `N#Cc1ccc(-c2ncc(CCN)cn2)c(Oc2ccc(N3C4CCC3CC4)nc2)c1` [compound 752, 4-[5-(2-aminoethyl)pyrimidin-2-yl]-3-[6-(7-azabicyclo[2.2.1]heptan-7-yl)pyridin-3-yl]oxybenzonitrile] the IC50 was 0.01 to 1 µM. `N#Cc1ccc(-c2ncc(CCN)cn2)c(Oc2nnc(N3C4CCC3CC4)s2)c1` [compound 767, 4-[5-(2-aminoethyl)pyrimidin-2-yl]-3-[[5-(7-azabicyclo[2.2.1]heptan-7-yl)-1,3,4-thiadiazol-2-yl]oxy]benzonitrile] showed an IC50 of under 0.01 µM.

Same assay, conditions: Human TRPC6 stably-expressing cells, OAG 30 μM, FLIPR Calcium 5 Assay Kit; read-out: Inhibitory activity (pIC50 class) (converted)
`Cc1nc(Oc2cc(C#N)ccc2-n2ncc3c2CCNC3)cc(N2CCCCC2)n1` [compound 745, 3-(2-methyl-6-piperidin-1-ylpyrimidin-4-yl)oxy-4-(4,5,6,7-tetrahydropyrazolo[4,3-c]pyridin-1-yl)benzonitrile] gave an IC50 of over 1 µM. Work on `Cc1nc(Oc2cc(C#N)ccc2-n2cc3c(n2)CNCC3)cc(N2CCCCC2)n1` [compound 746, 3-(2-methyl-6-piperidin-1-ylpyrimidin-4-yl)oxy-4-(4,5,6,7-tetrahydropyrazolo[3,4-c]pyridin-2-yl)benzonitrile] yielded an IC50 of over 1 µM. `Cc1nc(Oc2cc(C#N)ccc2-n2ncc3c2CNCC3)cc(N2CCCCC2)n1` [compound 747, 3-(2-methyl-6-piperidin-1-ylpyrimidin-4-yl)oxy-4-(4,5,6,7-tetrahydropyrazolo[3,4-c]pyridin-1-yl)benzonitrile] showed an IC50 of over 1 µM. In the case of `N#Cc1ccc(-c2ncc(CCN)cn2)c(Oc2ccc(N3CCCC3)nc2)c1` [compound 750, 4-[5-(2-aminoethyl)pyrimidin-2-yl]-3-(6-pyrrolidin-1-ylpyridin-3-yl)oxybenzonitrile], the IC50 is reported as 0.01 to 1 µM. In the case of `N#Cc1ccc(-c2ncc(CN)cn2)c(Oc2ccc(N3CCCC3)nc2)c1` [compound 751, 4-[5-(aminomethyl)pyrimidin-2-yl]-3-(6-pyrrolidin-1-ylpyridin-3-yl)oxybenzonitrile], the IC50 is reported as over 1 µM. `N#Cc1ccc(-c2ncc(CN)cn2)c(Oc2ccc(N3C4CCC3CC4)nc2)c1` [compound 753, 4-[5-(aminomethyl)pyrimidin-2-yl]-3-[6-(7-azabicyclo[2.2.1]heptan-7-yl)pyridin-3-yl]oxybenzonitrile] was tested, and the IC50 was over 1 µM. Molecule `CCN(CC)c1cc(Oc2cc(C#N)ccc2-c2ccc(CCN)cn2)n(C)n1` [compound 754, 4-[5-(2-aminoethyl)pyridin-2-yl]-3-[5-(diethylamino)-2-methylpyrazol-3-yl]oxybenzonitrile] has an IC50 of under 0.01 µM. In the case of `Cn1nc(N2CCCC2=O)cc1Oc1cc(C#N)ccc1-c1ccc(CCN)cn1` [compound 755, 4-[5-(2-aminoethyl)pyridin-2-yl]-3-[2-methyl-5-(2-oxopyrrolidin-1-yl)pyrazol-3-yl]oxybenzonitrile], the IC50 is reported as 0.01 to 1 µM. Molecule `Cn1nc(C2CC2)cc1Oc1cc(C#N)ccc1-c1cc(C(=O)N2CCC[C@H](N)C2)cn2ccnc12` [compound 756, 4-[6-[(3S)-3-aminopiperidine-1-carbonyl]imidazo[1,2-a]pyridin-8-yl]-3-(5-cyclopropyl-2-methylpyrazol-3-yl)oxybenzonitrile] has an IC50 of over 1 µM. In the case of `Cn1nc(C2CC2)cc1Oc1cc(C#N)ccc1-c1cc(C(=O)N2CCC[C@@H](N)C2)cn2ccnc12` [compound 757, 4-[6-[(3R)-3-aminopiperidine-1-carbonyl]imidazo[1,2-a]pyridin-8-yl]-3-(5-cyclopropyl-2-methylpyrazol-3-yl)oxybenzonitrile], the IC50 is reported as over 1 µM. With `CC(C)CN(C)c1cc(Oc2cc(C#N)ccc2-c2ncc(CCN)cn2)n(C)n1` [compound 758, 4-[5-(2-aminoethyl)pyrimidin-2-yl]-3-[2-methyl-5-[methyl(2-methylpropyl)amino]pyrazol-3-yl]oxybenzonitrile] the IC50 was under 0.01 µM. `CCCN(CCC)c1cc(Oc2cc(C#N)ccc2-c2ncc(CCN)cn2)n(C)n1` [compound 759, 4-[5-(2-aminoethyl)pyrimidin-2-yl]-3-[5-(dipropylamino)-2-methylpyrazol-3-yl]oxybenzonitrile] gave an IC50 of under 0.01 µM. Work on `COCCN(C)c1cc(Oc2cc(C#N)ccc2-c2ncc(CCN)cn2)n(C)n1` [compound 760, 4-[5-(2-aminoethyl)pyrimidin-2-yl]-3-[5-[2-methoxyethyl(methyl)amino]-2-methylpyrazol-3-yl]oxybenzonitrile] yielded an IC50 of under 0.01 µM. For `Cn1nc(-c2ccccn2)cc1Oc1cc(C#N)ccc1-c1nc(Cl)c2c(n1)CCNC2` [compound 761], the IC50 was over 1 µM. Molecule `CN(C)c1nc(-c2ccc(C#N)cc2Oc2cc(-c3ccccn3)nn2C)nc2c1CNCC2` [compound 762, 4-[4-(dimethylamino)-5,6,7,8-tetrahydropyrido[4,3-d]pyrimidin-2-yl]-3-(2-methyl-5-pyridin-2-ylpyrazol-3-yl)oxybenzonitrile] has an IC50 of over 1 µM. Work on `Cn1nc(C2CC2)cc1Oc1cc(C#N)ccc1-c1nnc2n1CCNC2` [compound 763, 3-(5-cyclopropyl-2-methylpyrazol-3-yl)oxy-4(5,6,7,8-tetrahydro-[1,2,4]triazolo[4,3-a]pyrazin-3-yl)benzonitrile] yielded an IC50 of over 1 µM. With `CC(C)Nc1cc(Oc2cc(C#N)ccc2-c2ncc(CN)cn2)cnn1` [compound 764, 4-[5-(aminomethyl)pyrimidin-2-yl]-3-[6-(propan-2-ylamino)pyridazin-4-yl]oxybenzonitrile] the IC50 was 0.01 to 1 µM. `CC(C)CNc1cc(Oc2cc(C#N)ccc2-c2ncc(CN)cn2)cnn1` [compound 765, 4-[5-(aminomethyl)pyrimidin-2-yl]-3-[6-(2-methylpropylamino)pyridazin-4-yl]oxybenzonitrile] gave an IC50 of under 0.01 µM. With `N#Cc1ccc(-c2ncc(CN)cn2)c(Oc2cnnc(NC3COC3)c2)c1` [compound 766, 4-[5-(aminomethyl)pyrimidin-2-yl]-3-[6-(oxetan-3-ylamino)pyridazin-4-yl]oxybenzonitrile] the IC50 was over 1 µM. For `CC(C)C(N)c1cnc(-c2ccc(C#N)cc2Oc2cc(-c3ccccn3)nn2C)nc1` (stereo not shown) [compound 768, 4-[5-(1-amino-2-methylpropyl)pyrimidin-2-yl]-3-(2-methyl-5-pyridin-2-ylpyrazol-3-yl)oxybenzonitrile], the IC50 was under 0.01 µM. Work on `CN(CC1CC1)c1cc(Oc2cc(C#N)ccc2-c2ncc(CCN)cn2)n(C)n1` [compound 769, 4-[5-(2-aminoethyl)pyrimidin-2-yl]-3-[5-[cyclopropylmethyl(methyl)amino]-2-methylpyrazol-3-yl]oxybenzonitrile] yielded an IC50 of under 0.01 µM. `CCCN(C)c1cc(Oc2cc(C#N)ccc2-c2ncc(CCN)cn2)n(C)n1` [compound 770, 4-[5-(2-aminoethyl)pyrimidin-2-yl]-3-[2-methyl-5-[methyl(propyl)amino]pyrazol-3-yl]oxybenzonitrile] was tested, and the IC50 was under 0.01 µM. `Cn1nc(N2CCOCC2)cc1Oc1cc(C#N)ccc1-c1ncc(CCN)cn1` [compound 771, 4-[5-(2-aminoethyl)pyrimidin-2-yl]-3-(2-methyl-5-morpholin-4-ylpyrazol-3-yl)oxybenzonitrile] gave an IC50 of 0.01 to 1 µM. Molecule `Cn1nc(N2CCOCC2)cc1Oc1cc(C#N)ccc1-c1ncc(CN)cn1` [compound 772, 4-[5-(aminomethyl)pyrimidin-2-yl]-3-(2-methyl-5-morpholin-4-ylpyrazol-3-yl)oxybenzonitrile] has an IC50 of under 0.01 µM. Molecule `Cn1nc(N2CCOCC2)cc1Oc1cc(C#N)ccc1-c1ccc(CN)cn1` [compound 773, 4-[5-(aminomethyl)pyridin-2-yl]-3-(2-methyl-5-morpholin-4-ylpyrazol-3-yl)oxybenzonitrile] has an IC50 of under 0.01 µM. `CCN(C)c1cc(Oc2cc(C#N)ccc2-c2ncc(CCN)cn2)n(C)n1` [compound 774, 4-[5-(2-aminoethyl)pyrimidin-2-yl]-3-[5-[ethyl(methyl)amino]-2-methylpyrazol-3-yl]oxybenzonitrile] showed an IC50 of under 0.01 µM. In the case of `CC(C)N(C)c1cc(Oc2cc(C#N)ccc2-c2ncc(CCN)cn2)n(C)n1` [compound 775, 4-[5-(2-aminoethyl)pyrimidin-2-yl]-3-[2-methyl-5-[methyl(propan-2-yl)amino]pyrazol-3-yl]oxybenzonitrile], the IC50 is reported as under 0.01 µM.
